Earlier results as cited in US8916356B2, “Measuring thrombin activity in whole blood” (Synapse B.V., priority 2005, dated 2014).

B1: abciximab (antibody, chains of the INN, looked up, V domains shown)
VH: EVQLQQSGTVLARPGASVKMSCEASGYTFTNYWMHWVKQRPGQGLEWIGAIYPGNSDTSYIQKFKGKAKLTAVTSTTSVYMELSSLTNEDSAVYYCTLYDGYYVFAYWGQGTLVTVSA
VL: EIVLTQSPVTLSVTPGDSVSLSCRASRDISNNLHWFQQTSHESPRLLIKYASQSMSGIPSRFSGSGSGTDFTLSINSVETEDFGMYFCQQTNSWPYTFGGGTKLEIK
modifications: Fab
notes: antiplatelet agent

Experiments:
[1] = tested on: thrombin generation in platelet rich plasma (or whole blood); conditions: literature refs 13-16
[2] = literature ref 17

| Molecule | effect on thrombin generation [1] | effect on venous thrombosis [2] |
| --- | --- | --- |
| CCCCS(=O)(=O)N[C@@H](Cc1ccc(OCCCCC2CCNCC2)cc1)C(=O)O [MK383] | inhibit thrombin generation | – |
| COC(=O)[C@H](c1ccccc1Cl)N1CCc2sccc2C1 [clopidogrel] | inhibit thrombin generation | – |
| CC(=O)Oc1ccccc1C(=O)O [aspirin] | inhibit thrombin generation | prevents venous thrombosis |
| B1 | inhibit thrombin generation | – |
